Patent US4755388A, “Liposome-encapsulated 5-fluoropyrimidines and methods for their use” (The Regents of the University of California, priority 1986, dated 1988)
Where two headings read alike, the source gives them in different places.

Experiments:
Aqueous solubility = type: physicochemical; details: water, read-out: maximum aqueous solubility
L929 murine fibroblasts = assay: Growth inhibition by 5-fluoroorotate, L929 murine fibroblasts (48 hours); type: cell-based; details: free drug mean of 4 determinations, liposomes from individual growth inhibition curves, read-out: IC50 (concentration of the drug that inhibits cell growth by 50%)
Procedure: (§1) All phospholipids (Avanti, Birmingham, Ala.) were used without further purification. Cholesterol (Sigma, St. Louis, Mo.) was recrystallized four times with methanol. All lipids were stored under argon in chloroform solution in sealed ampoules until use. Liposomes were prepared by reverse-phase evaporation (Szoka and Papahadjopoulos (1978) Proc. Natl. Acad. Sci. U.S.A. 75:4194-4198), and extrusion (Szoka et al. (1980) Biochem. et Biophys. Acta. 601:559-571). Small liposomes were made by extensive sonication of lipid suspensions. The unencapsulated drug was removed by gel filtration with Sephadex® G75 (Pharmacia). Lipid concentration was measured by phosporous analysis as described by Bartlett (1959) J. Biol. chem. 234:466-468. The encapsulated drug was measured using a molar extinction coefficient of 7100 in 0.1N HCl. A liposome sample was extracted (Bligh et al. (1959) Can. J. Biochem. Physiol. 37:[…]), the upper phase was acidified with HCl, and its absorbance was meausred. L929 murine fibroblasts and CV1-P cells were obtained and grown as previously described by Heath et al. (1983) Proc. Natl. Acad. Sci. U.S.A. 80:1377-1381 and Fraley et al. (1980) J. Biol. Chem. 255:10431-10435, respectively. The IC50 of the liposome preparations was measured by growth inhibition as previously described by Heath et al. (1983) supra. […]

CV1-P cells = assay: Growth inhibition by 5-fluoroorotate, CV1-P cells (72 hours); type: cell-based; details: free drug mean of 3 determinations, liposomes from individual growth inhibition curves, read-out: IC50 (concentration of the drug that inhibits cell growth by 50%)
Procedure: as §1

Compound | solubility (Aqueous solubility) [mM] | IC50 (L929 murine fibroblasts; L929, 48 hours) [nM] | IC50 (L929 murine fibroblasts; Mus musculus, L929, 48 h) [nM] | IC50 (CV1-P cells) [nM]
O=C([O-])c1[nH]c(=O)[nH]c(=O)c1F.[Na+] [Sodium 5-fluoroorotate] | 15 |  |  | 
O=C([O-])c1[nH]c(=O)[nH]c(=O)c1F.[Li+] [lithium salt, lithium 5-fluoroorotate] | ≥ 50 |  |  | 
O=C(O)c1[nH]c(=O)[nH]c(=O)c1F [Free Drug, 5-fluoroorotate] |  | 1100 ± 300 | 1000 | 7000
